Reference: publication PMC3328449, “Inhibition of Diacylglycerol–Sensitive TRPC Channels by Synthetic and Natural Steroids” (PLoS ONE, 2012)
Where “and” joins values, the source holds several entries; their conditions need not be identical. Equal entries are not always repeated.

Tests used:
hTRPC6 = target: T1, hTRPC6 (Homo sapiens, UniProt Q9Y210); experiment: OAG-induced Ca2+ entry, fluo-4 fluorometric imaging plate reader, TRPC6 HEK-FITR cells; type: cell-based; conditions: for IC50: TRPC6 HEK-FITR cells, fluo-4, area under the curve, 10 min pre-incubation, read-out: IC50, inhibition of OAG-induced Ca2+ entry via TRPC6; for Hill slope n, inhibition of TRPC6-mediated Ca2+ entry: fit to Hill model
T1 construct: expressed in transfected cells
T1 sequence (Q9Y210 1-931): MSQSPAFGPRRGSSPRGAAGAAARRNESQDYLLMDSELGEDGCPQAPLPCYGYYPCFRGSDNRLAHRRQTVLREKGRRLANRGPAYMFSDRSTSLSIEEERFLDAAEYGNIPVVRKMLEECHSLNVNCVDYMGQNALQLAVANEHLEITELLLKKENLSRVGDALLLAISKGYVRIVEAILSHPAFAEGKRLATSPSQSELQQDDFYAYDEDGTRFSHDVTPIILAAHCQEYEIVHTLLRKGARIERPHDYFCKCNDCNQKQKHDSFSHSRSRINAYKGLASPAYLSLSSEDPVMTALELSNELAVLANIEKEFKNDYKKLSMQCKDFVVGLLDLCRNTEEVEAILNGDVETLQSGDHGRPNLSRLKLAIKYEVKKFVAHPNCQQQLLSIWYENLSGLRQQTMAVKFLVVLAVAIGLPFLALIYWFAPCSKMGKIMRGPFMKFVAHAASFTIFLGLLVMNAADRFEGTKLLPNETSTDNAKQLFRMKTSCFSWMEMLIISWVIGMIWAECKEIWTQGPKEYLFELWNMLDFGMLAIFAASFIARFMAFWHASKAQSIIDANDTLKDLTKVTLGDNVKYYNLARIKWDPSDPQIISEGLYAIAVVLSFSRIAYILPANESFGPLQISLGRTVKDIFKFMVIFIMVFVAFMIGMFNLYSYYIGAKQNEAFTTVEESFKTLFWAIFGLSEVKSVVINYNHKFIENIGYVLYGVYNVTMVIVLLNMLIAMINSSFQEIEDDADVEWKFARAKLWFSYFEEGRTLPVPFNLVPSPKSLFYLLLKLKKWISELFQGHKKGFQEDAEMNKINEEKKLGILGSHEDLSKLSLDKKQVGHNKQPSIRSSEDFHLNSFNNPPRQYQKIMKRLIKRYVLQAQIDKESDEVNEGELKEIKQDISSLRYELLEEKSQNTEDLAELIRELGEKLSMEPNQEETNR
Protocol: Cells were grown at 37°C in a humidified atmosphere (5% or 7% CO2) under standard cell culture conditions. Stable human embryonic kidney (HEK) cell lines expressing recombinant mTRPC4ß (GenBank accession number AAC05178); mTRPC5 (GenBank accession number NM_009428) or hTRPC6 (GenBank accession number AF080394) under the control of a tetracycline-inducible promoter were generated using the Flp-In T-Rex (FITR) system (Invitrogen, Karlsruhe, Germany). TRPC4/5/6 HEK-FITR cells were maintained in Dulbecco's modified eagle medium (DMEM, with glutaMAX I, 4.5 g/l glucose and […] sodium pyruvate) supplemented with 10% (v/v) fetal bovine serum (Biochrom, Berlin, Germany), 1 mM glutamine, 1 mM MEM sodium pyruvate, 40 μg/ml hygromycin (50 μg/ml for mTRPC5 HEK-FITR cells), and 15 μg/ml blasticidine HCl. Channel expression was induced by supplementing the growth medium for 18-24 h with 1 μg/ml doxycycline. Cells grown to an almost confluent monolayer on black poly-D-lysine coated 96-well plates (Greiner, Frickenhausen, Germany) were washed with standard extracellular solution (140 mM NaCl, 1 mM MgCl2, 5.4 mM KCl, 2 mM CaCl2, 10 mM HEPES, 10 mM glucose, pH 7.35) and stained (30 min, room temperature) with dye solution (2 μM fluo-4 AM, 0.02% pluronic F127, 0.1% bovine serum albumin in standard extracellular solution). Cells were washed and either incubated with standard extracellular solution only or with different concentrations of test compounds for 10 min. Fluo-4 fluorescence was excited at 488 nm with an argon laser and measured using a fluorometric imaging plate reader (Molecular Devices, Sunnyvale, USA). All fluorometric measurements were performed at room temperature. […] Baseline fluorescence in non-OAG-stimulated cells and OAG-stimulated Ca^2+ influx into control cells not treated with inhibitors were defined as 0% and 100% influx, respectively. For statistical analysis, analysis of variance was performed with Origin 6.0 software (Microcal Software Inc., Northampton, USA). […] Averaged data is expressed as means ± SEM.

rat aortic rings = experiment: Isometric force measurement, relaxation of phenylephrine pre-contracted rat aortic rings; conditions: L-NAME treated, n = 6, read-out: EC50, vasorelaxation of pre-contracted aortic rings
Protocol: Adult male Wistar-Unilever rats (8–11 weeks old; Harlan Winkelmann, Borchen, Germany) were sacrificed by decapitation. Thoracic aortas were excised quickly, transferred to cold (4°C), carbogen (95% O2 and 5% CO2) bubbled physiological salt solution (119 mM NaCl, 4.7 mM KCl, 1.2 KH2PO4, 1.2 mM MgSO4, 1.6 mM CaCl2, 25 mM NaHCO3, 11 mM glucose) and rinsed. After removal of connective tissue and perivascular fat aortas were dissected in 5 mm rings, connected to force transducers and equilibrated in carbogen bubbled physiological salt solution at 37°C for 15 min. Aortic rings were set at 1000 mg passive tension and contractile forces were then measured isometrically using standard bath procedures as described earlier. […]
For statistical analysis, analysis of variance was performed with Origin 6.0 software (Microcal Software Inc., Northampton, USA). […] IC50 were calculated with SigmaPlot (Systat software, San Jose, USA) using the sigmoidal Hill-model: f = 100 (C^n/(IC50 ^n+C^n)); where f is the inhibition, C is the applied drug concentration and n is the Hill coefficient. The half maximal effective concentration (EC50) of norgestimate-induced vasorelaxation was calculated analogously with R = y0+y1C^n/(EC50 ^n+C^n); where R is relaxation, yo and y1 are constants, C is the applied drug concentration and n is the Hill coefficient. Averaged data is expressed as means ± SEM.

Effect on TRPC6-mediated Ca2+ entry (hTRPC6; 30 µM pre-incubation, OAG-induced) | IC50 (hTRPC6) | Hill slope n, inhibition of TRPC6-mediated Ca2+ entry (hTRPC6) | EC50 (rat aortic rings) | Compound
significantly reduced | 3 to 5 µM and 5.2 µM | 0.97 | 8.19 µM | C#C[C@]1(OC(C)=O)CC[C@H]2[C@@H]3CCC4=CC(=NO)CC[C@@H]4[C@H]3CC[C@@]21CC (mixture of isomers) [norgestimate]
– | 18 µM | 1.2 | – | CC(=O)[C@H]1CC[C@H]2[C@@H]3CCC4=CC(=O)CC[C@]4(C)[C@H]3CC[C@]12C [progesterone]
